Experimental data taken from patent publication US20200281243A1, “DIETARY PRODUCT” (CANCER RESEARCH TECHNOLOGY LTD, priority 2017, published 2020).

How the values were obtained:
[1] = test system: 4T1 cells; test: Matrigel invasion assay, parental 4T1 cells; assay type: cell-based, mouse; conditions: media supplemented with asparagine (100× of 1×NEAA, 2 days), 24 h matrigel invasion
Protocol: (§1) The in vitro invasive capacity of cells was measured using 6-well BioCoat Matrigel invasion plates. For parental 4T1 cells, 1×10^6 cells were plated on individual wells, for 4T1-T cells, 8×10^5 cells were plated on individual wells and for MDA-MB-231 cells, 5×10^5 cells were used per individual well. Cells were resuspended in media without serum and cells invaded into media with 5% fetal bovine serum and 5% fetal calf serum. For FIG. 3b and FIG. 9e, 4T1 and MDA-MB-231 cells were cultured in media containing 100× concentration of the specified amino acid (relative to the concentration in 1×NEAA) for 2 days or 3 days, respectively, before starting the invasion assay. After 24 h, non-invaded cells were removed and the invasion wells were washed in PBS, fixed in 2% glutalaldehyde for 2 min and stained with 0.5% crystal violet for 10 min. The wells were washed in distilled H2O, air-dried and scanned using the Odyssey infrared scanner. The signal was quantified using ImageJ (NIH).

[2] = test system: 4T1 cells; test: CellTrace Violet proliferation assay, parental 4T1 cells; assay type: cell-based, mouse; conditions: asparagine supplementation, 24 hours
Protocol: (§2) For the mCherry competition assay, shRNA-transduced mCherry-positive cells were admixed with untransduced cells. mCherry fluorescence was quantified on the LSR II flow cytometer (BD Biosciences). The proliferation assay was carried out using the CellTrace Violet Cell Proliferation Kit (Thermo Fisher Scientific). For FIG. 3b and FIG. 9e, 4T1 and MDA-MB-231 cells were cultured in media containing 100× concentration of the specified amino acid (relative to the concentration in 1×NEAA) for 2 days or 3 days, respectively, before starting the proliferation assay. Cells were stained with CellTrace violet and then trypsinized and re-suspended in media. After 24 hours, cells were collected in order to quantify violet fluorescence intensity using the SH800 flow cytometer (Sony).

[3] = test system: MDA-MB-231 cells; test: CellTrace Violet proliferation assay, MDA-MB-231 cells; assay type: cell-based, human; conditions: asparagine supplementation, 24 hours
Protocol: as §2

[4] = test system: Asns-silenced 4T1-T cells; test: Matrigel invasion assay, Asns-silenced cells; assay type: cell-based, mouse; conditions: media supplemented with asparagine
Protocol: as §1

[5] = test system: Asns-silenced 4T1-T cells; test: mCherry competition assay, Asns-silenced cells; assay type: cell-based, mouse; conditions: media supplemented with asparagine
Protocol: as §2

[6] = test system: EMT-up proteins; test: iTRAQ proteomic profiling of EMT-up proteins; assay type: cell-based, mouse; conditions: parental 4T1 cells; media supplemented with asparagine
Source text: Cells were washed in ice cold PBS and harvested for iTRAQ quantitative proteomics as previously described in Ross et al. 2004. Three replicates were utilized for each cell line.

[7] = test system: EMT-up genes; test: RNAseq of EMT-up genes; assay type: cell-based, mouse; conditions: parental 4T1 cells grown in asparagine supplemented media
[8] = test system: parental 4T1 cells; test: Orthotopic injection of parental 4T1 cells into NSG mice; assay type: in vivo, mouse; conditions: parental 4T1 orthotopic, 60U L-asparaginase 5 times per week for 19 days vs PBS
Protocol: (§3) All mouse experiments were approved by the Cold Spring Harbor Animal Care and Use Committee. The maximal permitted tumour size of 20 mm in any direction was never exceeded. All mouse injections were carried out with 6-8-week-old female NOD-SCID-112rg^−/− (NSG) mice (JAX). Balb/c mice were not used in this study as the different clonal cell lines have variable GFP levels due to the lentiviral barcode vector. Tail vein injections were carried out using 5×10^5 mouse mammary tumor cells, which were re-suspended in 100 ul of PBS and injected via tail vein. Orthotopic injections were performed using 1×10^5 mouse mammary tumor cells or 5×10^5 MDA-MB-231 cells. For this, cells were re-suspended in a 1:1 mix of PBS and growth factor reduced Matrigel (BD Biosciences). A volume of 20 ul was injected into the mammary gland #4 for mouse mammary tumor cells and a volume of 40 ul was injected for MDA-MB-231 cells. Primary tumor volume was measured using the formula V=½(L×W^2), where L is length and W is width of the primary tumor. For L-asparaginase studies, mice were administered 200 ul of 60U of L asparaginase 5× per week through intraperitoneal injections. […]
(§4) For each lung, five-micron sections were prepared and stained with a standard H&E protocol. Lung metastatic burden was determined by counting individual lung nodules on one section.

[9] = test system: 4T1-T cells; test: Orthotopic injection of Asns-silenced or -expressing 4T1-T cells into NSG mice; assay type: in vivo, mouse; conditions: Asns-silenced 4T1 cells orthotopic; L-asparaginase treated mice
Protocol: as §3, §4

[10] = Free amino acid quantification in blood serum using HPLC; assay type: in vivo, mouse; conditions: NSG mice; 60U L-asparaginase 5 times per week for 19 days
Protocol: as §3, with “tumor.” for “tumor. For L-asparaginase studies, mice were administered 200 ul of 60U of L asparaginase 5× per week through intraperitoneal injections.”
Free amino acids were quantified in cultured cells and blood serum. […] Each sample was quantified in triplicates using High Performance Liquid Chromatography (HPLC) and a flourometric detector. For each replicate, nanomoles of each amino acid was measured. […]

[11] = Metabolite profiling of mammary gland, serum and lungs by LC-MS/MS; assay type: in vivo, mouse; conditions: L-asparaginase treated animals
Protocol: as §3, with “tumor.” for “tumor. For L-asparaginase studies, mice were administered 200 ul of 60U of L asparaginase 5× per week through intraperitoneal injections.”
Dried-down extracts were re-suspended in 25 ul HPLC-grade water, and 1 ul was analyzed using hydrophilic interaction chromatography (HILIC) coupled to tandem mass spectrometry analysis (LC-MS/MS). […] Metabolite differences were analyzed by normalizing samples to total peak area and comparing replicates for each group using one-way ANOVA with multiple comparisons.

[12] = test system: Twist1 and E-cadherin; test: IHC staining for Twist1 and E-cadherin in primary tumours; assay type: in vivo, mouse; conditions: primary tumours of mice treated with L-asparaginase
Protocol: as §3, with “A volume of 20 ul was injected into the mammary gland #4 for mouse mammary tumor cells and a volume of 40 ul was injected for MDA-MB-231 cells.” left out, “tumor.” for “tumor. For L-asparaginase studies, mice were administered 200 ul of 60U of L asparaginase 5× per week through intraperitoneal injections.”
For immunohistochemistry, primary tumors and lungs were processed as previously described in Wagenblast et al. 2015. […] Ecadherin and Twist1 diaminobenzidine-stained (DAB) and hematoxylin stainings were quantified using ImageJ (NIH). For this, images were color deconvoluted according to Ruifrok et al. 2001 and the percent area of E-cadherin and Twist1 positive staining was measured.

[13] = test system: solid tumours; conditions: Tallal et al. 1970; cited from earlier work

Compound	increase in invasiveness [1]	growth [2]	growth [3]	capacity to invade [4]	capacity to grow [5]	expression of EMT-up proteins [6]	mRNA levels of EMT-up genes [7]	primary tumour volumes [8]	metastatic burden ([8]; lung)	primary tumour volume [9]	resultant metastases [9]	serum asparagine (HPLC) [10]	asparagine in the serum (mass spectrometry) [11]	Twist1 and E-cadherin expression (IHC) [12]	treating solid tumours [13]
NC(=O)C[C@H](N)C(=O)O [asparagine]	approximately 2 fold	not impacted	not impacted	increased	increased	increased in expression	increased	–	–	–	–	–	–	–	–
L-asparaginase	–	–	–	–	–	–	–	no significant difference	significant reduction	reduction	nearly undetectable	undetectable	nearly undetectable	significant expression change	ineffective
